# Legend:
# [1] = tested on: mechanical allodynia induced in mice by intraplantar capsaicin injection; assay: Mechanical allodynia induced by intraplantar capsaicin injection (von Frey, latency to paw withdrawal); assay type: in vivo
# Source text: Thus, in Example 1, an experimental trial is described performed on mice with mechanical allodynia induced by intraplantar capsaicin injection, according to the model described in the article by Entrena et al., Antagonism by haloperidol and its metabolites of mechanical hypersensitivity induced by intraplantar capsaicin in mice: role of sigma-1 receptors, Psychopharmacology, 2009, 205, 21-33. This trial is based on hypersensitivity induced in the mice by means of injecting capsaicin in the right hind paw. The allodynia is quantified by measuring the decrease in latency time in the hypersensitized mice until paw withdrawal, when a mechanical stimulus is applied to it.
# For this trial, 6 groups of mice were used with between 8 and 12 animals in each group. […] 15 minutes after the injection, different mechanical stimuli were applied with a von Frey filament with a force of 0.5 g in an esthesiometer, and the values of the latency time until paw withdrawal were recorded. […]
# In order to quantify the anti-allodynic effect, a value of 100% allodynia was assigned to the latency time of the animals injected with capsaicin and without pharmacological treatment (only treated with the vehicle). […]
# [2] = tested on: mechanical allodynia induced in mice by chronic ligation of the sciatic nerve; assay: Mechanical allodynia produced by chronic ligation of the sciatic nerve (von Frey, 50% pain threshold); assay type: in vivo; conditions: 7 days after surgery, 45 minutes before measurement
# Source text: In Example 2, an experimental trial on mechanical allodynia induced in mice by chronic ligation of the sciatic nerve is described, according to the model described in the article by Decosterd et al., Spared nerve injury: an animal model of persistent peripheral neuropathic pain, Pain, 2000, 149-158. This model is based on causing mechanical allodynia in mice by means of ligation of two of the three branches of the sciatic nerve (tibial and peroneal), leaving the sural branch intact. The allodynia induced in this manner is quantified by the reduction observed in the threshold force that is necessary to apply in order to produce animal's paw withdrawal in those subjected to the ligation. As described in such example, it is observed that the administration of different doses of compound Ic is effective in reversing the allodynia induced in this model (FIGS. 1 and 2).
# For this trial, groups of 6 to 7 mice were used for each group. Mechanical allodynia was induced in the animals (except for the control group) by chronic ligation of the sciatic nerve, and the allodynia induced in this manner was registered 7 days after performing the surgery.
# Compound Ic was administered at different doses (3, 30 and 60 mg/Kg) as well as only saline solution as a control, and the positive control gabapentin (40 mg/Kg). The products were administered by stomach tube 45 minutes before performing the allodynia measurement, which was quantified using von Frey filaments, according to the force threshold necessary to cause paw withdrawal of the animal.
# The results are summarized in FIG. 2, where the Y-axis represents half of the threshold force that is necessary to apply in order to cause paw withdrawal (50% pain threshold, in grams, g) and the X-axis indicates the different groups and treatments carried out. […]
# An analogous test was carried out in which several doses of compound Ic (30, 60 and 120 mg/Kg) and gabapentin (40 mg/Kg) were administered, and the 50% pain threshold was measured at different times after the administration in order to evaluate the kinetic of the pharmacological effect and the total duration of the anti-allodynic effect. […]
structure (smiles),measurement,setting,value
"CO[C@H]1O[C@H](COS(=O)(=O)[O-])[C@@H](OS(=O)(=O)[O-])[C@H](O[C@@H]2O[C@H](C(=O)[O-])[C@@H](O)[C@H](O)[C@H]2O)[C@H]1NC(C)=O.[Na+].[Na+].[Na+] [Compound Ic, methyl 2-acetamido-2-desoxi-3-O-(β-D-glucopyranosyluronic acid)-4,6-di-O-sulfo-α-D-glucopyranoside trisodium salt]",anti-allodynic effect,"[1]; capsaicin 1 μg intraplantar, 3, 10 and 30 mg/Kg by gavage 45 minutes before the trial, effect dose-dependent",notable anti-allodynic effect
same,reduction of the allodynia,"[1]; capsaicin, highest dose 30 mg/Kg by gavage 45 minutes before the trial, 100% = capsaicin + vehicle",more than 50%
same,anti-allodynic effect,[2]; 3 mg/Kg by stomach tube,notable
same,anti-allodynic effect,[2]; 30 mg/Kg by stomach tube,notable
same,analgesic effect,[2]; 60 mg/Kg by stomach tube,achieved an analgesic effect
same,reversal of the allodynia,[2]; 60 mg/Kg by stomach tube,total reversal of the allodynia

# Reference: US11046722B2, “Sulphated disaccharides for the treatment of neuropathic pain” (BIOIBERICA, S.A.U., priority 2017, dated 2021)
